Measurements: patent publication US20180311342A1, “IMMUNOSTIMULATING AGENT” (AJINOMOTO CO., INC., priority 2017, published 2018)

How the values were obtained:
Format in all cases: in vivo, BALB/c mice
[1] = system: anti-OVA-specific IgG1 subclass antibody; test: Adjuvant activity test: anti-OVA-specific IgG1 subclass antibody in serum of OVA-immunized mice (ELISA); details: after secondary immunization, serum 2 weeks later; OVA 5 μg + compound 0.256 μmol in 5% αCD-added saline (Addavax mixed with saline at 1:1), dorsal-subcutaneous; compared to OVA single administration group
Description: (§1) 8-Week-old female BALB/c mice were divided into groups (N=6), and each group was primarily immunized by dorsal-subcutaneous administration of (1) ovalbumin (OVA) (5 μg) dissolved in saline as an antigen (OVA single administration group), (2) OVA 5 μg and Addavax™ (mixed with saline at 1:1) dissolved in saline (Addavax™ administration group) as positive control adjuvant, (3) OVA 5 μg and SZ137 0.256 μmol dissolved or dispersed in 5% α-cyclodextrin (hereinafter to be simply referred to as αCD)-added saline (SZ137 administration group), (4) OVA (5 μg) and SZ138 (0.256 μmol) dissolved or dispersed in 5% αCD-added saline (SZ138 administration group), (5) OVA (5 μg) and SZ142 (0.256 μmol) dissolved or dispersed in 5% αCD-added saline (SZ142 administration group), (6) OVA (5 μg) and SZ144 (0.256 μmol) dissolved or dispersed in 5% αCD-added saline (SZ144 administration group), (7) OVA (5 μg) and SZ145 (0.256 μmol) dissolved or dispersed in 5% αCD-added saline (SZ145 administration group), (8) OVA (5 μg) and SZ146 (0.256 μmol) dissolved or dispersed in 5% αCD-added saline (SZ146 administration group), (9) OVA (5 μg) and SZ147 (0.256 μmol) dissolved or dispersed in 5% αCD-added saline (SZ147 administration group), (10) OVA (5 μg) and SZ148 (0.256 μmol) dissolved or dispersed in 5% αCD-added saline (SZ148 administration group), each per mouse. Two week later, the secondary immunization was carried out by dorsal-subcutaneous administration of solutions or dispersions similar to those of the above-mentioned (1)-(10) again. Two weeks from the secondary immunization, the whole blood was extracted under anesthesia, and the obtained serum sample was measured for anti-OVA-specific IgG1 subclass antibody, anti-OVA-specific IgG2a subclass antibody, and anti-OVA-specific IgE antibody.
(§2) The measurement method of the anti-OVA-specific IgG1 subclass antibody and anti-OVA-specific IgG2a subclass antibody in Experimental Example 1 and the following Experimental Examples 2-10 is as follows.
(§3) To a 96 well plate was added 5 μg/ml OVA at 100 µl/well, and the mixture was incubated at 4° C. overnight. After incubation, the mixture was washed three times with 200 μl of PBS-T (PBS (phosphate buffered saline)+0.05% (v/v) Tween 20) per well, and blocked with 100 μl of 5% FCS (fetal calf serum)/PBS solution per well at room temperature for 1-2 hr. Thereafter, the mixture was washed three times with PBS-T (200 μl/well), a diluted serum sample (100 l/well) or the same amount of 5% FCS/PBS solution as a control was added, and the mixture was incubated at 37° C. for 1 hr. To calculate concentration of the antibody, the standard of an anti-OVA-specific IgG1 subclass antibody diluted with 2% FCS/PBS solution was added at 100 ng/ml, 50 ng/ml, 25 ng/ml, 12.5 ng/ml, 6.25 ng/ml, 3.125 ng/ml, 1.56 ng/ml, 0.781 ng/ml, 0.391 ng/ml, 0.195 ng/ml, 0.098 ng/ml, 0 ng/ml, per 1 well. When an anti-OVA-specific IgG2a subclass antibody was measured, the standard of an anti-OVA-specific IgG2a subclass antibody was added at 50 ng/ml, 25 ng/ml, 12.5 ng/ml, 6.25 ng/ml, 3.125 ng/ml, 1.56 ng/ml, 0.781 ng/ml, 0.391 ng/ml, 0.195 ng/ml, 0.098 ng/ml, 0.049 ng/ml, 0 ng/ml, per 1 well. Thereafter, similar to the samples, the mixture was washed five times with PBS-T (200 μl/well), a diluted biotinylated anti-mouse IgG1 antibody and IgG2a antibody were added (100 μl/well), and the mixture was incubated at 37° C. for 45 min. Thereafter, the mixture was washed five times with PBS-T (200 μl/well), a diluted anti-biotin-HRP antibody was added (100 μl/well), and the mixture was incubated at 37° C. for another 30 min. Thereafter, the mixture was washed five times with PBS-T (200 μl/well), TMB substrate solution was added (100 μl/well), and the mixture was incubated at room temperature for 10-15 min. Thereafter, a reaction quenching liquid (2N sulfuric acid solution) was added (50 l/well) to discontinue a color developing reaction, and the absorbance (OD Value=450 nm) was measured by a microplate reader. […]

[2] = system: anti-OVA-specific IgE antibody; test: Allergy inducing activity test: anti-OVA-specific IgE antibody in serum of OVA-immunized mice (DS mouse IgE ELISA (OVA) kit)
Description: as §1
The measurement method of the anti-OVA-specific IgE antibody in Experimental Example 1 and the following Experimental Examples 2-5, 8-10 is as follows.
DS mouse IgE ELISA (OVA) kit manufactured by DS Pharma Biomedical Co., Ltd. was used. The protocol is briefly shown below.
The serum sample and a standard reagent for drawing an analytical curve are diluted with a buffer and, after stirring, left standing at room temperature for 10 min. The sample and the standard solution are added to a plate bound with an IgE capture antibody in advance and, after stirring, the mixture is left standing at room temperature for 60 min. The mixture is washed three times with wash, HRP-labeled OVA is added, and the mixture is left standing at room temperature for 30 min. The mixture is washed three times with wash, a substrate solution is added, and the mixture is left standing in dark at room temperature for 30 min. A reaction quenching liquid is added, the mixture is stirred, and the absorbance (OD Value=450 nm) is immediately measured.
The standard used is one attached to the kit, the standard curve is drawn from the measured OD Value, and the concentration is calculated. […]

[3] = system: anti-OVA-specific IgG2a subclass antibody; test: Adjuvant activity test: anti-OVA-specific IgG2a subclass antibody in serum of OVA-immunized mice (ELISA); details: after secondary immunization, serum 2 weeks later; OVA 5 μg + compound 0.256 μmol in 5% αCD-added saline (Addavax mixed with saline at 1:1), dorsal-subcutaneous; compared to OVA single administration group
Description: as §1, §2, §3

Structure (SMILES): CCCCCCCCCCCCCCCCCC(=O)N[C@@H](CCCNC(=N)N)C(=O)NCCCCCCCCCCCC.Cl [SZ137, N-[(1S)-1-(dodecylcarbamoyl)-4-guanidino-butyl]octadecanamide hydrochloride]
- anti-OVA-specific IgG1 subclass antibody production [1]: significantly increased
- anti-OVA-specific IgE antibody production ([2]; after secondary immunization, OVA 5 μg + compound 0.256 μmol in 5% αCD-added saline (Addavax mixed with saline at 1:1), dorsal-subcutaneous, compared to OVA single administration group): an increase in the anti-OVA-specific IgE antibody production was not observed
- allergy inducing activity as compared to Addavax ([2]; conclusion from IgE after secondary immunization, compound in 5% αCD-added saline): may have a lower allergy inducing activity
- anti-OVA-specific IgG2a subclass antibody production [3]: significantly increased
